Assay results reported in patent US20150004110A1, “NOVEL ANTI-AGING AND DEPIGMENTING COSMETIC COMPOSITIONS” (DIVERCHIM, priority 2011, published 2015).

Key:
[1] = system: collagen III; experiment: Staining and immunolabelling of skin explant sections: collagen III; assay type: cell-based, human; details: treated skin explant sections
Protocol: 1. Preparation of the explants • During abdominoplasty of a person, 45 skin explants were prepared. The explants were put in BEM medium (BIO-EC's Explants Medium) for survival at 37° C. in humid atmosphere, enriched with 5% CO2.
2. Application of the products • The solutions are prepared in DMSO from pure products, in order to obtain final concentrations of […] by incorporating an identical volume of 10 μl in each well and for each treatment. The treatment was carried out in the survival medium on days 0, 1, 2, 5 and 7.
3. Taking samples • On D0, the 3 explants of batch TO were taken and each explant was cut in two. One part was fixed in buffered formol for observation of the general morphology. The other was frozen and stored at −80° C. • On D5 and D9, 3 explants from each batch were taken and treated in the same way.
4. Histological treatment • After fixation for 48 hours in buffered formol, the samples were dehydrated and embedded in paraffin using a Leica 1020 automatic dehydrator. They were embedded according to procedure MO-H-153 using a Leica EG 1160 coating station. Sections of 5 μm were prepared according to procedure MO-H-173 using a Minot-type microtome, Leica RM 2125 and mounted on Superfrost® histological glass slides.
6. Staining and immunolabelling
Immunolabelling will be carried out on sections with the appropriate antibody. […]

[2] = system: normal human epidermal keratinocytes; experiment: Differential expression PCR arrays (RT-qPCR) of keratinocyte differentiation markers; assay type: cell-based; details: 10 μM
Protocol: The expression of the specific markers was evaluated by RT-qPCR (reverse transcription quantitative polymerase chain reaction) on messenger RNAs extracted from the cell lawns from each treatment. The transcriptomic profile contains 64 genes selected for their importance in keratinocyte differentiation. The PCR reactions (polymerase chain reactions) were carried out by quantitative PCR with the “Light Cycler” system (Roche Molecular System Inc.) according to the procedures recommended by the supplier. Normal human epidermal keratinocytes were incubated in the presence of compound 1 or a reference with calcium chloride. The expression of the specific markers was evaluated by RT-qPCR on the messenger RNAs extracted from the cell lawns from each treatment.

[3] = system: filaggrin; experiment: In situ immunolabelling of filaggrin in keratinocytes; assay type: cell-based; details: normal human epidermal keratinocytes
Source text: Transglutaminase K, TGK, and filaggrin are two protein markers of epidermal differentiation involved in arrangement of the keratin filaments and formation of the envelope of the stratum corneum.

[4] = target: T1, PPARα (h) (Homo sapiens, UniProt Q07869); experiment: PPARα competitive radioligand binding assay (Cerep)
T1 sequence (Q07869 1-468): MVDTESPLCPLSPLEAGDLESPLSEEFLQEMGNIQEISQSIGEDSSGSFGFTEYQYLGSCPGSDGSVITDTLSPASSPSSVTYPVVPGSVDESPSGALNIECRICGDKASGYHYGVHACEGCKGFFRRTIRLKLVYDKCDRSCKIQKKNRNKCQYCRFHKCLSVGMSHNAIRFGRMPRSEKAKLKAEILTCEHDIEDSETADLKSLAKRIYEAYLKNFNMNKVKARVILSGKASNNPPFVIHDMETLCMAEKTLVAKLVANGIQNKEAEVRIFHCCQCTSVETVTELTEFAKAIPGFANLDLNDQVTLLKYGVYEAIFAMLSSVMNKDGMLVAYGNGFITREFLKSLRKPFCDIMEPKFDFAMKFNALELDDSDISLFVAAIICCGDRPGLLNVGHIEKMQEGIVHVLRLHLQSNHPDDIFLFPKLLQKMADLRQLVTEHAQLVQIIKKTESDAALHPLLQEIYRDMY
Protocol: The affinity of compound 1 for the PPAR receptors (α and γ) was tested by in vitro binding assays (tests carried out by the company Cerep).
This is a nuclear receptor competitive binding assay, between a radiolabelled ligand and the test molecule (here compound 1).
The principle of the technique consists of measuring the displacement of the radioactive ligand bound to the receptor by the test molecule. • Material and Methods
The specific binding of the ligand is defined by the difference between total binding and non-specific binding determined in the presence of an excess of unlabelled ligand.
The results are expressed as: • percentage of control specific binding ((measured specific binding/control specific binding)×100)) • percentage of inhibition of control specific binding ((100−(measured specific binding/control specific binding)) obtained in the presence of compound 1.
The values of IC50 (concentration at which the maximum control specific binding is inhibited by 50%), and the Hill coefficient (nH) are determined by non-linear regression analysis of the curves of competition with a mean replicated value using adjustment of Hill's equation
The inhibition constant (Ki) was calculated using the Cheng-Prusoff equation

[5] = target: T2, PPARδ (h) (Homo sapiens, UniProt Q03181); experiment: PPARδ antagonist effect, coactivator Alpha screen; assay type: biochemical
T2 sequence (Q03181 1-441): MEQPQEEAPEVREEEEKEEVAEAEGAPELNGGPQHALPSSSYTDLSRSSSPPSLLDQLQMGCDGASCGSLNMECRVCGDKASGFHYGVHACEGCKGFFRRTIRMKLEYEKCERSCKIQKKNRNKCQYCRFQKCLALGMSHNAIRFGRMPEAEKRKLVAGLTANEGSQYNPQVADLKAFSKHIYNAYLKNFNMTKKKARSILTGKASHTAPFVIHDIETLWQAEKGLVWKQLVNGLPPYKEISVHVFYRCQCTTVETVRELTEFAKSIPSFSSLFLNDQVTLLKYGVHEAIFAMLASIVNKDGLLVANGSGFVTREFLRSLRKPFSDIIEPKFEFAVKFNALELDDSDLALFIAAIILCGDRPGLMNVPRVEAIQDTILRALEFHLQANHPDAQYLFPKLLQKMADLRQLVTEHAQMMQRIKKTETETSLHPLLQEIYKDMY
Protocol: The agonist or antagonist activity of compound 1 on the PPAR receptors was tested by fluorescence techniques. • Material and Methods
The results are expressed as: • percentage of control specific agonist response (measured specific response/control specific agonist response)×100) and • percentage inhibition of the control specific agonist response (100−((measured specific response)/control specific agonist response)×100)) obtained in the presence of compound 1.
The EC50 values (concentration at which the maximum specific response is 50%) and the IC50 values (concentration at which the maximum control specific agonist response is inhibited by 50%) are determined by non-linear regression analysis of the concentration-response curves with a mean replicated value using adjustment of Hill's equation
For the antagonists, the apparent dissociation constants (KB) were calculated using the modified Cheng-Prusoff equation

With `Oc1ccccc1CCOc1ccc(F)cc1` [Compound 1, 2-[2-(4-fluoro-phenoxy)-ethyl]-phenol] the “Collagen III in the papillary dermis” value [1] was “very slight densification”, the “Effect on keratinocyte differentiation (conclusion)” value [2] was “pro-differentiating effect” and the “Stimulation of expression of markers involved in lipid synthesis, antimicrobial defence, innate immunity and cell-cell interactions” value ([2]; compared with calcium chloride at 1.5 mM) was “less, but similar to calcium chloride at 1.5 mM”. For the same molecule, the “Protein expression of filaggrin” value [3] was “concentration-dependent stimulation of protein expression”, the inhibition at 10 µM ([4]; 10^−5 M, agonist radioligand, read-out: % Inhibition of control specific binding) was 0% and the inhibition at 1 µM ([4]; 10^−6 M, agonist radioligand, read-out: % Inhibition of control specific binding) was -2%. For the same molecule, the inhibition at 0.1 µM ([4]; 10^−7 M, agonist radioligand, read-out: % Inhibition of control specific binding) was -5%, the “Activity with respect to the PPARα receptor (binding, conclusion in words)” value ([4]; 10^−7 to 10^−5 M) was “no activity” and the inhibition at 10 µM ([5]; 10^−5 M, read-out: % Inhibition of control agonist response) was -5%. For the same molecule, the inhibition at 1 µM ([5]; 10^−6 M, read-out: % Inhibition of control agonist response) was -2%, the inhibition at 0.1 µM ([5]; 10^−7 M, read-out: % Inhibition of control agonist response) was 0% and the “PPARδ antagonist activity (conclusion in words)” value ([5]; 10^−7 to 10^−5 M) was “not an antagonist”.
